# How the values were obtained:
# wildtype LPA1 = target: T1, wildtype LPA1 (Homo sapiens, UniProt Q92633); assay: Intracellular calcium mobilization in B103 cells expressing wild-type LPA1; format: cell-based
# T1 construct: expressed in transfected cells; host or cells: B103 rat neuroblastoma cells (lack LPA response), electroporated
# From the text: (§1) PCXN2.1-LPA1, an expression vector for human LPA1, was kindly provided by Dr. T. Shimizu (NCGM, Tokyo) (40). The mutants of LPA1 (Lys39Ala, Arg115Ala, Arg124Ala, Asp191Ala and Lys294Ala) were generated by a two-step PCR. The cDNA of the 5′ portion of LPA1 was amplified by PCR using a forward primer containing XhoI site and reverse primers containing the sequence encoding the mutated amino acids. The 3′ portion was also amplified with forward primers containing the mutated sequence and a reverse primer containing NotI and BglII sites. All cDNAs of the LPA1 variants were amplified using a mixture of the two PCR products together with the XhoI and NotI-containing primers. The resulting 1.0 KB products were cloned into a pCRII-Topo vector for sequence analysis. The cDNA of LPA1 mutants were cut out from pCRII-Topo by XhoI and NotI, and ligated into the XhoI/NotI sites of pCAGGS-HA (41), to generate pCAGGS-HA-LPA1 mutants.
# (§2) B103 rat neuroblastoma cells that lack LPA response were cultured in DMEM containing 10% fetal bovine serum at 37 °C in a 5% CO2 atmosphere. […] After 30 min, 20 μl of the LPA species at defined concentration was added followed by an immediate recording of the fluorescence using the Functional Drug Screening System/μCell (Hamamatsu Photonics K.K., Hamamatsu city, Japan). The fluorescence intensity was described as fura-2 ratio (tested value/basal value) or fold induction. […]
# LPA1 = system: LPA1; design: method as in earlier work; conditions: acting on LPA1; ref 31 (Williams et al.); cited from earlier work
# LPA1 K7.36A mutant = target: T2, LPA1 K7.36A mutant (Homo sapiens, UniProt Q92633, K294A); assay: Intracellular calcium mobilization in B103 cells expressing K7.36A LPA1 mutant; format: cell-based; conditions: at the highest concentration tested
# T2 construct: expressed in transfected cells; host or cells: B103 rat neuroblastoma cells, electroporated with pCAGGS-HA-LPA1 mutant
# T2 sequence (Q92633 whole entry K294A): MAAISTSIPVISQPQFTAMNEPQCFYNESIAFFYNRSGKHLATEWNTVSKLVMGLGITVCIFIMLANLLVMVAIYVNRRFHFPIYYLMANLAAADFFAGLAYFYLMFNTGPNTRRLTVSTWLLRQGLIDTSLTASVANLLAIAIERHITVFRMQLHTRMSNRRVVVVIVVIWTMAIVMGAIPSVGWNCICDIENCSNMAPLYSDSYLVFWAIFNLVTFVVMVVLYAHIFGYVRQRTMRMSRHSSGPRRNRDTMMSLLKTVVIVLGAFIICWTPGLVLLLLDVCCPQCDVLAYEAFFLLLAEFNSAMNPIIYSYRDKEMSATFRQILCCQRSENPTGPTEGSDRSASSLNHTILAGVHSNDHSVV
# From the text: as §1, §2
# T1 sequence (Q92633 whole entry): as the sequence (Q92633 whole entry K294A) above, with A294K counted along it
Molecule,"potency compared with LPA (18:1), dose-response curve (wildtype LPA1)",EC50 (LPA1) [nM],"intracellular calcium mobilization, Emax levels of the wildtype (LPA1 K7.36A mutant)"
alkyl glycerol phosphate 18:1 [AGP (18:1)],right-shift in the dose-response curve,1500,–
"CCCCC/C=C\C/C=C\C/C=C\C/C=C\CCCC(=O)OC[C@@H](O)COP(=O)(O)O.N [LPA 20:4, 1-arachidonoyl-2-hydroxy-sn-glycero-3-phosphate (ammonium salt)]",–,–,≈ 60%

# — publication PMC4542628, “Lys39-Lysophosphatidate Carbonyl Oxygen Interaction Locks LPA1 N-terminal Cap to the Orthosteric Site and partners Arg124 During Receptor Activation” (Scientific Reports, 2015)
